The values that follow come from patent US20250145589A1, “PYRIDINE DERIVATIVE AND USE THEREOF” (SICHUAN HUIYU PHARMACEUTICAL CO., LTD., priority 2021, published 2025).

For one assay, the target named is PI3Kα (Homo sapiens (Human), UniProt P42336). In words: Inhibition of PI3Kα efficacy assay (ADP-Glo kinase assay). Type of assay: biochemical. To be noted: read-out: PI3Kα inhibitory activity (IC50). A digest of the protocol:
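Eight five-fold dilutions of compound (2 mM DMSO stock) tested; kinase reaction with PI and ATP ran 60 min at RT, followed by ADP-Glo and detection reagent steps of 40 min each. Four-parameter logistic fitting gave IC50 values.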
For orientation: ADP-Glo turns the ADP formed in a reaction into a luminescent signal.

The target in a further assay is PI3Kδ (Homo sapiens (Human), UniProt O00329). In words: Inhibition of PI3Kδ efficacy assay (ADP-Glo kinase assay). Type of assay: biochemical. The note with it: read-out: PI3Kδ inhibitory activity (IC50). A digest of the protocol: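 Luminescent ADP-Glo readout of PI3Kδ: after a 60 min RT reaction with PI/ATP substrate, ATP depletion (40 min) and ADP detection (40 min) steps followed. Compounds tested as eight five-fold serial dilutions; inhibition rates fitted to log(inhibitor) vs. response, variable slope, for IC50.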

Another assay addresses KRAS^G12C-SOS1 (Homo sapiens (Human), UniProt P01116, G12C). Nature of the assay: HTRF KRAS G12C/SOS1 binding assay. The note with it: Table 5. Summed up: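 Compound was serially diluted five-fold over eight points, with a 2 mM DMSO stock. After anti-tag-Tb3+ and anti-tag-XL665 were added, plates were incubated 3 h at 4 °C and read by HTRF (ex 337 nm, em 620/665 nm ratio). IC50 values come from four-parameter variable-slope fits.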
A general note: In TR-FRET formats the signal depends on donor and acceptor labels being close together.

In assay [1] the test system is MIA PaCa-2 cells (KRAS G12C mutant). In words: MIA PaCa-2 cell anti-proliferation (CellTiter-Glo). The note with it: Homo sapiens; for pIC50: 72 h, MIA Paca-2 cells, 3 days, Table 7, read-out: MIA PaCa-2 (IC50). The format is cell-based. Summed up: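 Viable-cell luminescence (CellTiter-Glo, ≥30 min at 25 °C) measured after a 3-day, 37 °C exposure to compounds at 9 points, 4-fold spaced, in DMEM containing 10% FBS plus 2.5% horse serum. IC50 derived versus no-inhibitor wells.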

Assay [2] relates to MIA PaCa-2-AMGR drug-resistant cell line. Nature of the assay: MIA PaCa-2-AMGR drug-resistant cell proliferation inhibitory activity test. Type of assay: cell-based. To be noted: 72 h, MIA PaCa-2-AMGR drug-resistant cells, 3 days incubation, CellTiter-Glo. Summed up: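 Viability was read by CellTiter-Glo luminescence after 3 days of compound exposure (8 points, 5-fold serial dilution), with IC50 derived relative to untreated control. Cells: AMG510-resistant MIA PaCa-2 (selected stepwise to 1 μM AMG510), 4×10^3/well, DMEM + 10% FBS + 2.5% horse serum, 37° C.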

pIC50: −log10 of the molar value. Like-named read-outs stand apart in the source and are kept apart here.

Sequence of KRAS^G12C-SOS1 (P01116-2 other isoform, or with tags, fused parts or gaps G12C): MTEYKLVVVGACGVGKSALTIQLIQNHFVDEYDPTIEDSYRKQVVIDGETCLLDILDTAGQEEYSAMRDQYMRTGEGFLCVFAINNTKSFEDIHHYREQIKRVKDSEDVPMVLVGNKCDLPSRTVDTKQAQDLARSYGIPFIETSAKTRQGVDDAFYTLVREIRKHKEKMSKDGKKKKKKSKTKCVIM
Sequence of PI3Kδ (O00329 whole entry): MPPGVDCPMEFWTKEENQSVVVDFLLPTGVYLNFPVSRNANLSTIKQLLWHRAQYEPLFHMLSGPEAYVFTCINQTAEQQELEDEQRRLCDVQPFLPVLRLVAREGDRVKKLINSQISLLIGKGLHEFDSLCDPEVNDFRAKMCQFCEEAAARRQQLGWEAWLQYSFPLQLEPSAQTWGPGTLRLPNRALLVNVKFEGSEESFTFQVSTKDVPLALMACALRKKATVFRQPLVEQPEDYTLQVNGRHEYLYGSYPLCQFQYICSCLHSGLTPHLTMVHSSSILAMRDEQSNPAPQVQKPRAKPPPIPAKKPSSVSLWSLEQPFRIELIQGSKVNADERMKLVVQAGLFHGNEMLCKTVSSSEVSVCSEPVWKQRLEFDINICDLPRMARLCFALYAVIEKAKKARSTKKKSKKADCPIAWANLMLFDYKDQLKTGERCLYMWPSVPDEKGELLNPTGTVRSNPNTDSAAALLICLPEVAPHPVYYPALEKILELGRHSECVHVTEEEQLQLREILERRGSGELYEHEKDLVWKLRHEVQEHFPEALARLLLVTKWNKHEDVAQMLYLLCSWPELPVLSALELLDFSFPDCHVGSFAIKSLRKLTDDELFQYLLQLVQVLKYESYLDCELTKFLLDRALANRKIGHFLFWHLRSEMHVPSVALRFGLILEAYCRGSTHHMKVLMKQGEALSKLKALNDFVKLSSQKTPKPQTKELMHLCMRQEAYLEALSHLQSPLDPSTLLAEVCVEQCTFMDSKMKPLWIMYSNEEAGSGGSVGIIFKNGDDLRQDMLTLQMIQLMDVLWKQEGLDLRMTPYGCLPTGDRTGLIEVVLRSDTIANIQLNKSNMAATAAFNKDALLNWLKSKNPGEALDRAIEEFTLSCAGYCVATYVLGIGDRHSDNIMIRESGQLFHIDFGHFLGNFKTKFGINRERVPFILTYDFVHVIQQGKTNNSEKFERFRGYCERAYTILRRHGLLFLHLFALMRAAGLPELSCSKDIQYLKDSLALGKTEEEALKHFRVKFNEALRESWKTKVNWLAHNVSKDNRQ
Sequence of PI3Kδ (P27986 whole entry partner): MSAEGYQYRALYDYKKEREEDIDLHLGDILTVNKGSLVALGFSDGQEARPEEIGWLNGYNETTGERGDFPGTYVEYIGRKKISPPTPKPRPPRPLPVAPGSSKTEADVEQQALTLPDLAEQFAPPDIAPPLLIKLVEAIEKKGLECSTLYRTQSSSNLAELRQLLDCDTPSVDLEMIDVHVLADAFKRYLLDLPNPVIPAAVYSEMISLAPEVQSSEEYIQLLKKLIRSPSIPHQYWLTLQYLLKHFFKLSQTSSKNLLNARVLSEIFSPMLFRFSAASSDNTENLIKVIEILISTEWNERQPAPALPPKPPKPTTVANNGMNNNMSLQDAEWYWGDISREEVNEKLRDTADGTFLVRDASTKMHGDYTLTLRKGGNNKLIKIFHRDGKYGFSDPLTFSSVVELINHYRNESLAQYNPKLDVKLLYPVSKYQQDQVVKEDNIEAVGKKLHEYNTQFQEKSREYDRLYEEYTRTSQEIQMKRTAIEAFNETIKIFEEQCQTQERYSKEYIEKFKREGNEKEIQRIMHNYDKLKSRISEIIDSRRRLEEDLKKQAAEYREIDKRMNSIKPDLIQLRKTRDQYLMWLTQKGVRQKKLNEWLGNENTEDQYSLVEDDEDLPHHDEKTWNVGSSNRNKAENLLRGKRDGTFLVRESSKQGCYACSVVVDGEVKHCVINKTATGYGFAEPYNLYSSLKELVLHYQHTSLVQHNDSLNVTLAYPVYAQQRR
Sequence of PI3Kα (P42336 whole entry): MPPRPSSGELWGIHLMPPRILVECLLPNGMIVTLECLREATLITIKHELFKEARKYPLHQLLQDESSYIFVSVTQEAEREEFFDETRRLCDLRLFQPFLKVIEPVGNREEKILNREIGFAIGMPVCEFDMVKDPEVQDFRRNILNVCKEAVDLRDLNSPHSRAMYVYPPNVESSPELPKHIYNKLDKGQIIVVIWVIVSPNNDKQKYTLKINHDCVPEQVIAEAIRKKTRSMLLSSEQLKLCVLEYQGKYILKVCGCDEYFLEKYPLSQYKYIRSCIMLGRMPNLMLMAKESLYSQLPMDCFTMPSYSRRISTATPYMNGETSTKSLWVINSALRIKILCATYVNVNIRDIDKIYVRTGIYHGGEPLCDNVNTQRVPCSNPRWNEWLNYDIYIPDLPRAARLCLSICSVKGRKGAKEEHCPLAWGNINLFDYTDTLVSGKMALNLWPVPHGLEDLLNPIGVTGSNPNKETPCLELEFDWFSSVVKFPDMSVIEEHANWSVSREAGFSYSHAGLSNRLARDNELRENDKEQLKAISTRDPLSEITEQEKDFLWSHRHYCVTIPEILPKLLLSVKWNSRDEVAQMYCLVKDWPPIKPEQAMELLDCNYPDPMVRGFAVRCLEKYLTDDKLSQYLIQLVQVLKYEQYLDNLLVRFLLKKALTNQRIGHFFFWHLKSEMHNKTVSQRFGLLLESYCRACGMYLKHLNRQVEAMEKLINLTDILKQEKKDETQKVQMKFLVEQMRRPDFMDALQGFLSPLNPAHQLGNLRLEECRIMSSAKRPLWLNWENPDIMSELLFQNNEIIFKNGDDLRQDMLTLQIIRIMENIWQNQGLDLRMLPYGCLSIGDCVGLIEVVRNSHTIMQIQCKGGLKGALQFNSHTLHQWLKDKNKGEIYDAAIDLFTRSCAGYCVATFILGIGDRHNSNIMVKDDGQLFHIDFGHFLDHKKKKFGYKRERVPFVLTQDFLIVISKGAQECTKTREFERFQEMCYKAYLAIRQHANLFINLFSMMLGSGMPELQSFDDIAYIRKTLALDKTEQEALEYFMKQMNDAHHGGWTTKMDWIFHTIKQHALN
Sequence of PI3Kα (P27986 whole entry partner): as the sequence (P27986 whole entry partner) above

The term pIC50 denotes −log10 of the IC50, conventionally taken in molar units. As to `COc1ncc(-c2ccc3ncnc(N4CCN(C(=O)/C=C/C(C)=O)CC4)c3c2)cc1NS(=O)(=O)c1ccccc1C` [Example 93, (E)-N-(2-methoxy-5-(4-(4-(4-oxopent-2-enoyl)piperazin-1-yl)quinazolin-6-yl)pyridin-3-yl)-2-methylbenzenesulfonamide], the pIC50 was 8.22 at PI3Kα (Table 2); 7.14 on PI3Kδ (Table 2); 6.46 at KRAS^G12C-SOS1; 7.40 in assay [1]; 6.94 in assay [2].

Regarding `COc1ncc(-c2ccc3ncnc(N4CCN(C(=O)/C=C/C(C)=O)CC4)c3c2)cc1NS(=O)(=O)c1c(F)cccc1F` [Example 22, (E)-2,6-difluoro-N-(2-methoxy-5-(4-(4-(4-oxopent-2-enoyl)piperazin-1-yl)quinazolin-6-yl)pyridin-3-yl)benzenesulfonamide], the pIC50 on PI3Kα (Table 1) was 7.94; at PI3Kδ (Table 1) it was 7.08; at KRAS^G12C-SOS1, 6.83; in assay [1], 7.04; in assay [2], 7.12.

As usually defined, the IC50 is the concentration at which inhibition is half-maximal. Regarding `COc1ncc(-c2ccc3ncnc(N4CCN(C(=O)/C=C/C(C)=O)CC4)c3c2)cc1NS(=O)(=O)c1c(F)cccc1C#N` [Example 122, (E)-2-cyano-6-fluoro-N-(2-methoxy-5-(4-(4-(4-oxopent-2-enoyl)piperazin-1-yl)quinazolin-6-yl)pyridin-3-yl)benzenesulfonamide], the pIC50 on PI3Kα (Table 2) was 8.09; on PI3Kδ (Table 2), 8.33; on KRAS^G12C-SOS1, 6.84; in assay [2], 6.56. In assay [1] (MIA PaCa-2, 72 h, read-out: MIA PaCa-2 (IC50, nM)), the IC50 came out at 106 nM.

With `COc1ccc(Cl)c(S(=O)(=O)Nc2cc(-c3ccc4ncnc(N5CCN(C(=O)/C=C/C(C)=O)CC5)c4c3)cnc2OC)c1` [Example 184, (E)-2-chloro-5-methoxy-N-(2-methoxy-5-(4-(4-(4-oxopent-2-enoyl)piperazin-1-yl)quinazolin-6-yl)pyridin-3-yl)benzene-sulfonamide], the pIC50 is 9.09 at PI3Kα (Table 4); 7.79 on PI3Kδ (Table 4); 6.44 on KRAS^G12C-SOS1; 7.22 in assay [1]; 6.76 in assay [2].

`COc1ncc(-c2ccc3ncnc(N4CCN(C(=O)/C=C/C(C)=O)CC4)c3c2)cc1NS(=O)(=O)c1ccc(Cl)cc1F` [Example 177, (E)-4-chloro-2-fluoro-N-(2-methoxy-5-(4-(4-(4-oxopent-2-enoyl)piperazin-1-yl)quinazolin-6-yl)pyridin-3-yl)benzene-sulfonamide]: the pIC50 at PI3Kα (Table 4) was 8.30; on PI3Kδ (Table 4), 7.72; on KRAS^G12C-SOS1 it was 6.61; in assay [1], 7.59; in assay [2], 7.44.

Turning to `COc1ncc(-c2ccc3ncnc(N4CCN(C(=O)/C=C/C(C)=O)CC4)c3c2)cc1NS(=O)(=O)c1cc(F)ccc1F` [Example 94, (E)-2,5-difluoro-N-(2-methoxy-5-(4-(4-(4-oxopent-2-enoyl)piperazin-1-yl)quinazolin-6-yl)pyridin-3-yl)benzenesulfonamide], the pIC50 on PI3Kα (Table 2) is 7.96; on PI3Kδ (Table 2), 7.25; at KRAS^G12C-SOS1, 6.72; in assay [1] it was 7.18; in assay [2], 6.90.

`COc1ncc(-c2ccc3ncnc(N4CCC5(CC4)CN(C(=O)/C=C/C(C)=O)C5)c3c2)cc1NS(=O)(=O)c1sc(C)nc1C` [Example 178, (E)-N-(2-methoxy-5-(4-(2-(4-oxopent-2-enoyl)-2,7-diazaspiro[3.5]nonan-7-yl)quinazolin-6-yl)pyridin-3-yl)-2,4-dimethyl-thiazole-5-sulfonamide]: the pIC50 on PI3Kα (Table 4) was 7.69; on PI3Kδ (Table 4) it was 8.04; at KRAS^G12C-SOS1, 6.67; in assay [1] it was 7.37; in assay [2] it was 7.47.

Regarding `COc1ncc(-c2ccc3ncnc(N4CCN(C(=O)/C=C/C(C)=O)CC4)c3c2)cc1NS(=O)(=O)c1ccncc1C` [Example 172, (E)-N-(2-methoxy-5-(4-(4-(4-oxopent-2-enoyl)piperazin-1-yl)quinazolin-6-yl)pyridin-3-yl)-3-methyl-pyridine-4-sulfonamide], the pIC50 on PI3Kα (Table 4) is 8.39; at PI3Kδ (Table 4), 7.95; at KRAS^G12C-SOS1, 6.21; in assay [1] it was 6.77; in assay [2] it was 6.59.
